# Assay results published in paper PMC7932537, “Quantitative profiling of protease specificity” (PLoS Computational Biology, 2021).
# Legend:
# MMP-2 = assay: Substrate phage display with NGS: relative probability (RP) of P3-P1' tetramer clusters; assay type: biochemical, human; conditions: for MMP2 relative probability (RP): MMP2 tetramers from unique substrates, unrounded values; for avg_RP: MMP2 - no binning; for relative_probability: tetramer clusters unique to the MMP-2 selectome, MMP-2 RP; for relative probability (RP) of matching tetramer: P3-P1' tetramer matching the MS detected MMP2 cleavage sequence, RP_above_4.5; for normalized RP - MMP2: normalized RP of matching tetramer
# MMP-9 = assay: as above; assay type: biochemical, human; conditions: for corresponding MMP9 relative probability (RP): MMP2 tetramers from unique substrates, RP of same tetramer for MMP9; for normalized RP - MMP9: normalized RP of matching tetramer
# [1] = RP according to MMP2, P3-P1' tetramer of unique physiologic MMP2 substrates from MEROPS
# [2] = RP of the P3-P1' tetramer cluster contained in the hexamer, 200 nM MMP-2, 2 h, 37°C, two rounds of selection
# [3] = MMP9, RP of the P3-P1' tetramer contained in the hexamer substrate (substrate phage display, NGS)
# [4] = RP of the P3-P1' tetramer, MMP2 substrate phage display/NGS, tetramers of physiologic MEROPS substrates common to MMP2 and MMP9
# [5] = RP of the P3-P1' tetramer, MMP9 substrate phage display/NGS, tetramers of physiologic MEROPS substrates common to MMP2 and MMP9
# [6] = MMP2, RP of matching P3-P1' tetramer, common set of MMP2-9 selectome, RP above KL threshold
# [7] = RP of matching tetramer, common MMP2-9 selectome
# [8] = MMP9, RP of matching P3-P1' tetramer, common set of MMP2-9 selectome
# [9] = MMP9, RP of the P3-P1' tetramer matching the MS detected cleavage, RP above 4.7, substrate phage display with NGS
# [10] = RP of matching tetramer, common MMP2-9 selectome, RP above KL threshold
# [11] = RP of matching tetramer, unique part of MMP2 selectome, RP above KL threshold
# [12] = RP of matching tetramer, unique part of MMP2 selectome
# [13] = RP according to MMP9, P3-P1' tetramer of unique physiologic MMP9 substrates from MEROPS
substance,measurement,setting,value
KSEL,MMP2 relative probability (RP),MMP-2,10.4091
same,Relative probability (RP) rank,MMP-2; [1],4754
same,relative probability (RP),MMP-2; [1],10.41
same,corresponding MMP9 relative probability (RP),MMP-9,0.2037
KSPLRQ,relative probability (RP),MMP-2; [2],11.8624
same,relative probability (RP),MMP-9; [3],29.0862
KSPQAM,relative probability (RP),MMP-2; [2],28.5429
same,relative probability (RP),MMP-9; [3],47.1106
KSPQSY,relative probability (RP),MMP-2; [2],26.1515
same,relative probability (RP),MMP-9; [3],42.416
KSPSRL,relative probability (RP),MMP-2; [2],31.7732
same,relative probability (RP),MMP-9; [3],39.8157
KSPVGV,relative probability (RP),MMP-2; [2],27.6556
same,relative probability (RP),MMP-9; [3],34.3287
LAEL [P3-P1' tetramer cluster],avg_RP,"MMP-2; average relative probability of the tetramer, redundant tetramers averaged out",27.078
same,relative probability (RP),MMP-9; tetramer projected onto MMP-9 cleavage sites determined by Prudova et al. (2010),0.44
LAGL [P3-P1' tetramer cluster],MMP2 relative probability (RP),MMP-2,32.2383
same,Relative probability (RP) rank,MMP-2; [1],174
same,relative probability (RP),MMP-2; [1],32.24
same,relative_probability,MMP-2,32.24
same,corresponding MMP9 relative probability (RP),MMP-9,1.413
LAHA,MMP2 relative probability (RP),MMP-2,10.8276
same,Relative probability (RP) rank,MMP-2; [1],4607
same,relative probability (RP),MMP-2; [1],10.83
same,relative probability (RP),MMP-2; tetramer annotation of MMP-2 cleavage sites in physiologic substrates from MEROPS,10.83
same,corresponding MMP9 relative probability (RP),MMP-9,0.5961
LANM,avg_RP,"MMP-2; average relative probability (RP) of the P3-P1' tetramer, redundant tetramers have been averaged out",31.4114
same,relative probability (RP) (acc.to MMP2),MMP-2; [4],31.41
same,relative probability (RP) (acc.to MMP9),MMP-9; [5],5.47
LAPL [P3-P1' tetramer cluster],MMP2 relative probability (RP),MMP-2,31.5631
same,Relative probability (RP) rank,MMP-2; [1],227
same,relative probability (RP),MMP-2; [1],31.56
same,relative_probability,MMP-2,31.56
same,corresponding MMP9 relative probability (RP),MMP-9,4.642
LAWL,avg_RP,"MMP-2; average relative probability of the P3-P1' tetramer, redundant tetramers have been averaged out",22.0358
same,relative probability (RP) (acc.to MMP2),MMP-2; [6],22.04
same,relative probability (RP) of matching tetramer,MMP-2,22.04
same,relative probability (RP) (acc.to MMP2),MMP-2; [7],22.04
same,relative probability (RP) (acc.to MMP9),MMP-9; [8],19.78
same,relative probability (RP),MMP-9; [9],19.78
same,relative probability (RP) (acc.to MMP9),MMP-9; [10],19.78
LAYL,relative probability (RP) of matching tetramer,MMP-2,25.34
same,relative probability (RP) (acc.to MMP2),MMP-2; [11],25.34
same,normalized RP - MMP2,MMP-2; unique part of MMP2 selectome,0.6939
same,relative probability (RP) (acc.to MMP9),MMP-9; [12],2.51
same,normalized RP - MMP9,MMP-9; unique part of MMP2 selectome,0.04792
LFGL,relative probability (RP) (acc.to MMP2),MMP-2; [6],12.87
same,relative probability (RP) of matching tetramer,MMP-2,12.87
same,relative probability (RP) (acc.to MMP2),MMP-2; [7],12.87
same,relative probability (RP) (acc.to MMP9),MMP-9; [8],14.17
same,relative probability (RP),MMP-9; [9],14.17
same,relative probability (RP) (acc.to MMP9),MMP-9; [10],14.17
LGRF,MMP2 relative probability (RP),MMP-2,13.9898
same,Relative probability (RP) rank,MMP-2; [1],3427
same,relative probability (RP),MMP-2; [1],13.99
same,corresponding MMP9 relative probability (RP),MMP-9,1.477
LGRY,relative probability (RP) of matching tetramer,MMP-2,17.67
same,relative probability (RP) (acc.to MMP2),MMP-2; [11],17.67
same,normalized RP - MMP2,MMP-2; unique part of MMP2 selectome,0.4838
same,relative probability (RP) (acc.to MMP9),MMP-9; [12],1.95
same,normalized RP - MMP9,MMP-9; unique part of MMP2 selectome,0.03723
LGTY,MMP2 relative probability (RP),MMP-2,6.755
same,Relative probability (RP) rank,MMP-2; [1],6426
same,relative probability (RP),MMP-2; [1],6.75
same,corresponding MMP9 relative probability (RP),MMP-9,0.2972
LGVM,MMP2 relative probability (RP),MMP-2,4.758
same,Relative probability (RP) rank,MMP-2; [1],7712
same,relative probability (RP),MMP-2; [1],4.76
same,relative probability (RP) (acc.to MMP2),MMP-2; [4],4.76
same,corresponding MMP9 relative probability (RP),MMP-9,1.791
same,Relative probability (RP) rank,MMP-9; [13],10648
same,relative probability (RP),MMP-9; [13],1.79
same,relative probability (RP) (acc.to MMP9),MMP-9; [5],1.79
LPKPLR,relative probability (RP),MMP-2; [2],33.5622
same,relative probability (RP),MMP-9; [3],48.2599
LRAV,relative probability (RP) (acc.to MMP2),MMP-2; [7],11.96
same,relative probability (RP),MMP-9; [9],11.9
same,relative probability (RP) (acc.to MMP9),MMP-9; [10],11.9
LREL,relative probability (RP) (acc.to MMP2),MMP-2; [6],21.53
same,relative probability (RP) of matching tetramer,MMP-2,21.53
same,relative probability (RP) (acc.to MMP2),MMP-2; [7],21.53
same,relative probability (RP) (acc.to MMP9),MMP-9; [8],21.21
same,relative probability (RP),MMP-9; [9],21.21
same,relative probability (RP) (acc.to MMP9),MMP-9; [10],21.21
LRGL,relative probability (RP) (acc.to MMP2),MMP-2; [4],20.33
same,relative probability (RP) (acc.to MMP9),MMP-9; [5],28.75
LSKI,MMP2 relative probability (RP),MMP-2,4.524
same,Relative probability (RP) rank,MMP-2; [1],7909
same,relative probability (RP),MMP-2; [1],4.52
same,relative probability (RP) (acc.to MMP2),MMP-2; [4],4.52
same,corresponding MMP9 relative probability (RP),MMP-9,0.06898
same,Relative probability (RP) rank,MMP-9; [13],65498
same,relative probability (RP),MMP-9; [13],0.07
same,relative probability (RP) (acc.to MMP9),MMP-9; [5],0.07
LSPFGQ,relative probability (RP),MMP-2; [2],16.8686
same,relative probability (RP),MMP-9; [3],36.0266
LSWL,relative probability (RP) (acc.to MMP2),MMP-2; [6],25.56
same,relative probability (RP) of matching tetramer,MMP-2,25.56
same,relative probability (RP) (acc.to MMP2),MMP-2; [7],25.56
same,relative probability (RP) (acc.to MMP9),MMP-9; [8],20.21
same,relative probability (RP),MMP-9; [9],20.21
same,relative probability (RP) (acc.to MMP9),MMP-9; [10],20.21
MAGM,MMP2 relative probability (RP),MMP-2,21.4504
same,Relative probability (RP) rank,MMP-2; [1],1484
same,relative probability (RP),MMP-2; [1],21.45
same,corresponding MMP9 relative probability (RP),MMP-9,0.06237
MASQ,MMP2 relative probability (RP),MMP-2,16.7049
same,Relative probability (RP) rank,MMP-2; [1],2583
same,relative probability (RP),MMP-2; [1],16.7
same,corresponding MMP9 relative probability (RP),MMP-9,0
MGPLGQ,relative probability (RP),MMP-2; [2],28.8115
same,relative probability (RP),MMP-9; [3],44.3652
MGSL,MMP2 relative probability (RP),MMP-2,28.8961
same,Relative probability (RP) rank,MMP-2; [1],452
same,relative probability (RP),MMP-2; [1],28.9
same,corresponding MMP9 relative probability (RP),MMP-9,3.398
